{"source": "patent US20250332378A1", "about": "“CATHETERS” (ConvaTec Limited, priority 2023, published 2025)", "assay_type_in_all_cases": "cell-based", "key": {"[1]": {"system": "E. faecalis", "assay": "Rate of kill assessment against repeat inoculation, catheter submerged in medium", "settings": "for reduction in the microbial colony forming unit (CFU) counts: reinoculation at 24 hours; for time up to which rapid kill was observed: within 5 seconds following inoculation, repeat inoculation up to 24 hours", "description": "(§1) To assess the sterilisation potential of the medium of the invention, a microbiology assessment was conducted which consisted of rate of kill assessments against repeat inoculation of E. coli and E. faecalis. These organisms were selected as they are commonly identified in catheter associated urinary tract infections. The selection also covers both gram-positive and gram-negative species to test the broad spectrum antimicrobial performance of the medium of the invention.\n(§2) Intermittent urinary catheters, as used for Example 1, were provided and submerged in an aqueous medium comprising sodium hypochlorite and sodium chloride. The media comprising the catheters were respectively inoculated with the two microorganisms.\n(§3) A direct inoculation method was applied against each microorganism. The test organisms were reinoculated following 1, 2, 3, 4, 5, 6, and 24 hours. Following each inoculation, a sample was taken after 5 seconds, 1, 5, 10 and 15 minutes to evaluate the rate of kill.\n(§4) A microbiology assessment was performed using a medium of the invention comprising hypochlorous acid in an analogous manner to that performed for Example 2. However, for this test, following each inoculation, a sample was only taken after 5 seconds to evaluate the rate of kill. Further, in addition to the previous microorganisms tested, a further gram-positive organism, S. aureus, was tested.\n(§5) To evaluate the antimicrobial activity further, the test was repeated using the same frequency of inoculation, but with sampling performed up to 5 minutes after reinoculation at 24 hours. Even for the most challenging organism, E. faecalis, a reduction in the microbial colony forming unit (CFU) counts of over 3 orders of magnitude was observed after 5 minutes of inoculation.\n(§6) A microbiology assessment was performed using the media of the invention comprising hypochlorous acid in an analogous manner to that performed for Example 2. However, for this test, following each inoculation, samples were taken after 5 seconds, 30 seconds, 1, 2, and 5 minutes to evaluate the rate of kill."}, "[2]": {"system": "E. coli", "assay": "Rate of kill assessment against repeat inoculation, catheter submerged in medium", "settings": "for time up to which rapid kill was observed: within 5 seconds following inoculation, repeat inoculation up to 24 hours; for time up to which highly effective kill was observed: all time periods post-inoculation", "description": "as §1, §2, §3, §4, §5, §6"}, "[3]": {"system": "S. aureus", "assay": "Rate of kill assessment against repeat inoculation, catheter submerged in medium", "settings": "within 5 seconds following inoculation; repeat inoculation up to 24 hours", "description": "as §1, §2, §3, §4"}, "[4]": {"system": "Escherichia coli NCIMB 14067", "assay": "In vitro direct inoculation method, comparative test", "description": "(§7) An in vitro direct inoculation method was used to assess the antimicrobial activity of sulfanilamide in an intermittent urinary catheter scenario against […] Escherichia coli NCIMB 14067 and […] Enterococcus faecalis NCTC 12201; two microorganisms associated with urinary tract infections. Sulfanilamide concentrations of 0.1% and 0.01% were tested and bacterial levels monitored over a period of 5 minutes.\n(§8) Representative colonies of the challenge microorganisms, from an 18-24 hour challenge culture plate, were dispersed in MRD to obtain an optical density (OD540 nm) equivalent to approximately 1×10^8 CFU/mL. This was diluted to obtain a working concentration of 1×10^6 CFU/mL. A quantitative count was performed to confirm the inoculum level.\n(§9) The challenge organism was prepared in MRD to a concentration of approximately 1×10^6 CFU/mL. This suspension was added in a 1 mL volume to 9 mL of sample (n=3 per sample, n=2 per control) in a sterile 30 mL universal and pipetted up and down to mix. Following each testing period, 5 seconds, 30 seconds, 1 minute, 2 minutes and 5 minutes, 100 μL of the test solution was transferred to 0.9 mL and 9.9 mL volumes of DENB (1:10 and 1:100 dilutions respectively). The most appropriate dilutions were inoculated (100 μL) onto duplicate pre-dried (tryptone soy agar) TSA plates and the inoculum spread using separate sterile L-shaped spreaders (for 10^−1 and 10^−2 dilutions, 0.5 mL were placed onto duplicate plates). The TSA plates were allowed to dry before being inverted and incubated at 35±3° C. for at least 48 hours. Following the incubation period, the number of bacterial colonies were counted on the most appropriate dilution for each dressing type i.e. between 25-250 CFU/plate.\n(§10) The samples tested were: 0.1% sulfanilamide in sterile deionised water (SDW); 0.01% sulfanilamide in SDW; 100 ppm hypochlorous acid in SDW; and a SDW control."}, "[5]": {"system": "Enterococcus faecalis NCTC 12201", "assay": "In vitro direct inoculation method, comparative test", "description": "as §7, §8, §9, §10"}, "[6]": {"system": "E. coli NCIMB 14067", "assay": "Antimicrobial efficacy at very low concentrations, total viable counts", "settings": "for numbers of bacteria: after 30 seconds, approximately 1×10^5 CFU/mL inoculated", "description": "The antimicrobial efficacy of hypochlorous acid was tested at even lower concentrations (10, 25, and 50 ppm) against the challenging organism E. coli NCIMB 14067.\nThe representative colonies of E. coli NCIMB 14067 were dispersed in maximum recovery diluent (MRD) to obtain an optical density (OD540 nm) equivalent to approximately 1×10^6 CFU/mL. A quantitative plate count was performed on this suspension to determine the total number of viable organisms inoculated. A new suspension was prepared for each concentration tested.\nA 1000 ppm hypochlorous acid solution was diluted in sterile deionised water to provide the respective 10, 25 and 50 ppm hypochlorous acid solutions.\nThe hypochlorous acid samples were aliquoted into 9 mL volumes and 1 mL of the challenge organism suspension was added and mixed (the final number of bacteria present is now approximately 1×10^5 CFU/mL). Following 5, 30 seconds, 1, 2, and 5 minutes, 100 μL volumes were sampled and transferred to 0.9 mL and 9.9 mL of Dey-Engley Neutralising Broth (DENB) (to provide a 1:10 and 1:100 dilution respectively), and total viable counts were performed to establish the amount present. The plates were left to dry before being inverted and incubated at 35±3° C. for at least 48 hours. A negative control was also tested whereby 1 mL of the challenge organism suspension was added to 9 mL of MRD and tested as previously described. Following the incubation period, the number of CFUs were counted on the most appropriate dilution for each sample i.e. between 25-250 CFU/plate."}, "[7]": {"settings": "100 ppm in SDW, within 5 seconds and for the remaining testing period (5 minutes)"}, "[8]": {"settings": "675 ppm, 30 seconds after sampling"}, "[9]": {"settings": "each concentration tested (250, 675, 1000, 2000 ppm), after 5 minutes of sampling"}, "[10]": {"settings": "0.1% and 0.01% in SDW, any timepoint, 5 seconds to 5 minutes"}}, "data": [{"compound": "[O][Cl+][O-]", "note": "[chlorine dioxide]", "values": [{"measurement": "reduction in the microbial colony forming unit (CFU) counts", "setting": "[1]; after around 30 seconds of inoculation", "value": "4 orders of magnitude"}, {"measurement": "time up to which rapid kill was observed", "setting": "[1]", "value": "up to 6 hours"}, {"measurement": "time up to which rapid kill was observed", "setting": "[2]", "value": "up to 24 hours"}, {"measurement": "time up to which rapid kill was observed", "setting": "[3]", "value": "up to 6 hours"}]}, {"compound": "OCl", "note": "[hypochlorous acid]", "values": [{"measurement": "numbers of challenge organism", "setting": "[4]; [7]", "value": "undetectable numbers"}, {"measurement": "numbers of challenge organism", "setting": "[5]; [7]", "value": "undetectable numbers"}, {"measurement": "numbers of bacteria", "setting": "[6]; 25 ppm", "value": "undetectable numbers"}, {"measurement": "numbers of bacteria", "setting": "[6]; 50 ppm", "value": "undetectable numbers"}, {"measurement": "CFU/mL of negative control (MRD) larger than for the samples by", "setting": "[6]; all concentrations (10, 25, 50 ppm) and time points tested", "value": "over 4 orders of magnitude"}, {"measurement": "time up to which highly effective kill was observed", "setting": "[1]; 250 ppm, 30 seconds post-inoculation", "value": "Up to 5 hours"}, {"measurement": "time up to which highly effective kill was observed", "setting": "[1]; 250 ppm, all time periods post-inoculation", "value": "up to 4 hours"}, {"measurement": "time up to which effective kill was observed", "setting": "[1]; [8]", "value": "up to 24 hours"}, {"measurement": "time up to which highly effective kill was observed", "setting": "[1]; 675 ppm, all time periods post-inoculation", "value": "up to 6 hours"}, {"measurement": "time up to which highly effective kill was observed", "setting": "[1]; 675 ppm, from 30 seconds post-inoculation", "value": "up to 24 hours"}, {"measurement": "time up to which highly effective kill was observed", "setting": "[1]; 1000 ppm, all time periods post-inoculation", "value": "up to 24 hours"}, {"measurement": "reduction in the microbial colony forming unit (CFU) counts", "setting": "[1]; after 5 minutes of inoculation", "value": "over 3 orders of magnitude"}, {"measurement": "time up to which effective kill was found", "setting": "[1]; [9]", "value": "up to 24 hours"}, {"measurement": "time up to which rapid kill was observed", "setting": "[1]", "value": "up to 6 hours"}, {"measurement": "time up to which highly effective kill was observed", "setting": "[2]; 250 ppm", "value": "up to 5 hours"}, {"measurement": "time up to which highly effective kill was observed", "setting": "[2]; 675 ppm and above", "value": "up to 24 hours"}, {"measurement": "time up to which effective kill was observed", "setting": "[2]; [8]", "value": "up to 24 hours"}, {"measurement": "time up to which effective kill was found", "setting": "[2]; [9]", "value": "up to 24 hours"}, {"measurement": "time up to which rapid kill was observed", "setting": "[2]", "value": "up to 24 hours"}, {"measurement": "time up to which rapid kill was observed", "setting": "[3]", "value": "up to 6 hours"}]}, {"compound": "Nc1ccc(S(N)(=O)=O)cc1", "note": "[sulfanilamide, reference compound]", "values": [{"measurement": "change in challenge organism numbers compared to the control", "setting": "[4]; [10]", "value": "no decrease"}, {"measurement": "change in challenge organism numbers compared to the control", "setting": "[5]; [10]", "value": "no decrease"}]}]}
